≈ marks a conversion by molar mass, not a printed value. Entries after “also recorded” stand apart in the source; their conditions may differ. Read-outs that look alike come from different tables or passages of the source.
Key:
Measles = test: inhibition of cytopathic effect of measles; type: cell-based; settings: Table 3, Vero Flow cells
HSV-1 (strain) F = test: inhibition of cytopathic effect of HSV-1 strain F; type: cell-based, herpes simplex virus type 1; settings: Table 4, HSV-1 F, PRK cells; for EC50: Human alphaherpesvirus 1, read-out: MIC50
Coxsackie B4 = test: inhibition of cytopathic effect of Coxsackie B4; type: cell-based; settings: Table 3, Vero B, HeLa cells
[1] = tested on: HSV-1 (strain) TK^- B2006; test: inhibition of cytopathic effect of HSV-1 TK- strain B2006; type: cell-based, herpes simplex virus type 1; settings: for EC50: Human alphaherpesvirus 1, PRK, read-out: MIC50
VZV (strain) TK^- 07-1 = test: microbe, parasite or virus in culture; type: cell-based, varicella-zoster virus; settings: Human alphaherpesvirus 3, HEL, read-out: MIC50
VZV (strain) TK^- YSR = test: microbe, parasite or virus in culture; type: cell-based, varicella-zoster virus; settings: Human alphaherpesvirus 3, HEL, read-out: MIC50
Sindbis = test: inhibition of cytopathic effect of Sindbis; type: cell-based; settings: Table 3, Vero B cells
Vaccinia = test: microbe, parasite or virus in culture; type: cell-based; settings: for EC50: Orthopoxvirus vaccinia, PRK, read-out: MIC50
HSV-1 (strain) McIntyre = test: inhibition of cytopathic effect of HSV-1 strain McIntyre; type: cell-based, herpes simplex virus type 1; settings: Table 4, HSV-1 McIntyre, PRK cells; for EC50: Human alphaherpesvirus 1, read-out: MIC50
[2] = tested on: herpes simplex virus type 1 (HSV-1) (strain KOS); type: cell-based; settings: PRK cells
Polio 1 = test: microbe, parasite or virus in culture; type: cell-based
Reovirus = test: inhibition of cytopathic effect of reovirus; type: cell-based; settings: Table 3, Vero B cells
CMV (strain) Davis = test: inhibition of CMV strain Davis in HEL cells; type: cell-based, cytomegalovirus; settings: Human betaherpesvirus 5, Table 5, read-out: MIC50
CMV (strain) AD 169 = test: inhibition of CMV strain AD 169 in HEL cells; type: cell-based, cytomegalovirus; settings: Human betaherpesvirus 5; Table 5; CMV AD 169, HEL cells; read-out: MIC50
vaccinia virus (VV) = type: cell-based; settings: PRK cells, average of two determinations
HSV-2 (strain) 196 = test: inhibition of cytopathic effect of HSV-2 strain 196; type: cell-based, herpes simplex virus type 2; settings: Table 4, HSV-2 196, PRK cells; for EC50: Human alphaherpesvirus 2, read-out: MIC50
Moloney sarcoma = test: inhibition of Moloney sarcoma virus; type: cell-based, Moloney mouse sarcoma virus; settings: Table 3, MO cells; for EC50: Mus musculus, read-out: MIC50
Herpes simplex I (KOS) = test: inhibition of cytopathic effect of herpes simplex 1 (KOS); type: cell-based, herpes simplex virus type 1; settings: PRK cells; for EC50: Human alphaherpesvirus 1, read-out: MIC50
Parainfluenza 3 = test: inhibition of cytopathic effect of parainfluenza 3; type: cell-based; settings: Table 3, Vero B cells
[3] = antimetabolic activity: incorporation of 3H-labeled precursors into primary rabbit kidney cells; settings: rabbit, prk cells
Vesicular stomatitis = test: microbe, parasite or virus in culture; type: cell-based; settings: for EC50: read-out: MIC50
VZV (strain) YS = test: microbe, parasite or virus in culture; type: cell-based, varicella-zoster virus; settings: Human alphaherpesvirus 3, Table 5, HEL cells, read-out: MIC50
Herpes simplex 2 (G) = test: inhibition of cytopathic effect of herpes simplex 2 (G); type: cell-based, herpes simplex virus type 2; settings: PRK cells; for EC50: Human alphaherpesvirus 2, PRK, read-out: MIC50
VZV (strain) OKa = test: microbe, parasite or virus in culture; type: cell-based, varicella-zoster virus; settings: Human alphaherpesvirus 3, HEL, read-out: MIC50
[4] = tested on: HSV-1 (strain) TK^- C1101; test: inhibition of cytopathic effect of HSV-1 TK- strain C1101; type: cell-based, herpes simplex virus type 1; settings: for EC50: Human alphaherpesvirus 1, PRK, read-out: MIC50
DNA-viruses = type: cell-based
in vitro = settings: rabbit, prk cells
HSV-2 (strain) Lyons = test: inhibition of cytopathic effect of HSV-2 strain Lyons; type: cell-based, herpes simplex virus type 2; settings: Table 4, HSV-2 Lyons, PRK cells; for EC50: Human alphaherpesvirus 2, read-out: MIC50
PRK cells [5] = test: antimetabolic activity: incorporation of 3H-labeled precursors into primary rabbit kidney cells
PRK cells [6] = settings: 72 h
TK^- herpes viruses = settings: Prusoff et al.; cited from earlier work
[7] = cited from earlier work
[8] = 48 h, 10 μg/ml (value in parentheses)

## Nc1ncnc2c1ncn2C[C@@H](CO)OCP(=O)(O)O [No. 4, (S)-9-(3-hydroxy-2-phosphonylmethoxypropyl)adenine]
Measles; Measles morbillivirus, read-out: MIC50
  EC50: > 40 µg/mL
HSV-1 (strain) F
  EC50: 1 to 3 µg/mL (≈ 3.3 to 9.89 µM)
Coxsackie B4; Enterovirus B, B4, read-out: MIC50
  EC50: > 400 µg/mL
[1]
  EC50: 1 µg/mL (≈ 3.3 µM)
VZV (strain) TK^- 07-1
  EC50: 0.004 µg/mL (≈ 0.0132 µM)
VZV (strain) TK^- YSR
  EC50: 0.004 µg/mL (≈ 0.0132 µM)
Sindbis; read-out: MIC50
  EC50: > 400 µg/mL
Vaccinia
  EC50: 0.3 to 1.5 µg/mL (≈ 0.989 to 4.95 µM)
HSV-1 (strain) McIntyre
  EC50: 1 to 3 µg/mL (≈ 3.3 to 9.89 µM)
[2]; 24 h, 100 μg/ml
  Titer of HSV-1: < 1.3 log10 PFU/ml
[2]; [8]
  Titer of HSV-1: 4.3 log10 PFU/ml
[2]; 48 h, 100 μg/ml
  Titer of HSV-1: < 1.3 log10 PFU/ml
Polio 1; HeLa, read-out: MIC50
  EC50: > 400 µg/mL
Reovirus; Reovirus sp., read-out: MIC50
  EC50: > 40 µg/mL
CMV (strain) Davis
  EC50: 0.3 µg/mL (≈ 0.989 µM)
CMV (strain) AD 169
  EC50: 0.3 µg/mL (≈ 0.989 µM)
Vaccinia virus (VV); [8]
  Titer of VV: < 1.3 log10 PFU/ml
Vaccinia virus (VV); 48 h, 100 μg/ml
  Titer of VV: < 1.3 log10 PFU/ml
HSV-2 (strain) 196
  EC50: 1 to 3 µg/mL (≈ 3.3 to 9.89 µM)
Moloney sarcoma
  EC50: 1 µg/mL (≈ 3.3 µM)
Herpes simplex I (KOS); Table 3
  EC50: 1 µg/mL (≈ 3.3 µM)
Parainfluenza 3; read-out: MIC50
  EC50: > 200 µg/mL
[3]; ID50 Leu incorporation, (3H-4,5)Leu
  IC50: > 400 µg/mL
[3]; ID50 Urd incorporation, (3H-5)Urd
  IC50: > 400 µg/mL
[3]; ID50 dThd incorporation, (3H-methyl) dThd
  IC50: 297 µg/mL (≈ 980 µM)
[3]; ID50 dUrd incorporation, (3H-1',2')dUrd
  IC50: 74 µg/mL (≈ 244 µM)
Vesicular stomatitis
  EC50: > 400 µg/mL
VZV (strain) YS
  EC50: 0.004 µg/mL (≈ 0.0132 µM)
Herpes simplex 2 (G); Table 3
  EC50: 1 to 3 µg/mL (≈ 3.3 to 9.89 µM)
Herpes simplex 2 (G); Table 4, HSV-2 G
  EC50: 1 to 3 µg/mL (≈ 3.3 to 9.89 µM)
VZV (strain) OKa
  EC50: 0.004 µg/mL (≈ 0.0132 µM)
[4]
  EC50: 1 µg/mL (≈ 3.3 µM)
DNA-viruses
  antiviral activity (in words): the most effective one; also recorded: best antiviral activity
In vitro
  MCC at 72 h: ≥ 200 µg/mL
HSV-2 (strain) Lyons
  EC50: 1 µg/mL (≈ 3.3 µM)

## (RS)-9-(2(3)hydroxy-3(2)-phosphonylmethoxypropyl)adenine [No. 1]
Measles
  MIC50: > 400 µg/mL
HSV-1 (strain) F
  MIC50: 15 to 30 µg/mL
Coxsackie B4
  MIC50: > 400 µg/mL
[1]; Table 4, HSV-1 TK^- B2006, PRK cells
  MIC50: 7 µg/mL
Sindbis
  MIC50: > 400 µg/mL
Vaccinia; Table 3, PRK cells
  MIC50: 0.7 to 3.0 µg/mL
HSV-1 (strain) McIntyre
  MIC50: 30 µg/mL
[2]; 1 h, 100 μg/ml
  Titer of HSV-1: < 1.3 log10 PFU/ml
[2]; 24 h, 100 μg/ml
  Titer of HSV-1: 3.3 log10 PFU/ml
[2]; 48 h, 100 μg/ml
  Titer of HSV-1: 4.0 log10 PFU/ml
[2]; 72 h, 100 μg/ml
  Titer of HSV-1: 3.9 log10 PFU/ml
Polio 1; Table 3, HeLa cells
  MIC50: > 400 µg/mL
Reovirus
  MIC50: > 400 µg/mL
Vaccinia virus (VV); 1 h, 100 μg/ml
  Titer of VV: 1.7 log10 PFU/ml
Vaccinia virus (VV); 24 h, 100 μg/ml
  Titer of VV: 1.7 log10 PFU/ml
Vaccinia virus (VV); 48 h, 100 μg/ml
  Titer of VV: 1.2 log10 PFU/ml
Vaccinia virus (VV); 72 h, 100 μg/ml
  Titer of VV: 1.5 log10 PFU/ml
HSV-2 (strain) 196
  MIC50: 15 to 70 µg/mL
Moloney sarcoma
  MIC50: > 60 µg/mL
Herpes simplex I (KOS); Table 3
  MIC50: 20 to 30 µg/mL
Herpes simplex I (KOS); Table 4, HSV-1 KOS
  MIC50: 20 to 30 µg/mL
Parainfluenza 3
  MIC50: > 200 µg/mL
PRK cells [5]; (3H-1',2')dUrd
  ID50 dUrd incorporation: 230 µg/mL
PRK cells [5]; (3H-4,5)Leu
  ID50 Leu incorporation: > 400 µg/mL
PRK cells [5]; (3H-5)Urd
  ID50 Urd incorporation: > 400 µg/mL
PRK cells [5]; (3H-methyl) dThd
  ID50 dThd incorporation: 250 µg/mL
PRK cells [6]
  MCC (minimal cytotoxic concentration): ≥ 100 µg/mL
Vesicular stomatitis; Table 3, HeLa, PRK cells
  MIC50: > 400 µg/mL
Herpes simplex 2 (G); Table 3
  MIC50: 7 to 20 µg/mL
Herpes simplex 2 (G); Table 4, HSV-2 G
  MIC50: 7 to 20 µg/mL
[4]; Table 4, HSV-1 TK^- C1101, PRK cells
  MIC50: 7 to 20 µg/mL
HSV-2 (strain) Lyons
  MIC50: 7 to 15 µg/mL

## Nc1nc2c(ncn2COCCO)c(=O)[nH]1 [ACV, aclycovir, reference compound]
HSV-1 (strain) F
  EC50: 0.2 µg/mL (≈ 0.888 µM)
[1]
  EC50: 70 µg/mL (≈ 311 µM)
Vaccinia
  EC50: 70 µg/mL (≈ 311 µM)
HSV-1 (strain) McIntyre
  EC50: 0.1 µg/mL (≈ 0.444 µM)
TK^- herpes viruses
  activity against TK^- herpes viruses (in words): inactive
CMV (strain) Davis
  EC50: 20 µg/mL (≈ 88.8 µM)
CMV (strain) AD 169
  EC50: 30 µg/mL (≈ 133 µM)
HSV-2 (strain) 196
  EC50: 0.07 µg/mL (≈ 0.311 µM)
Moloney sarcoma
  EC50: 50 µg/mL (≈ 222 µM)
[7]
  solubility (in words): low solubility
Herpes simplex I (KOS); Table 3
  EC50: 0.2 µg/mL (≈ 0.888 µM)
Vesicular stomatitis
  EC50: > 400 µg/mL
Herpes simplex 2 (G); Table 3
  EC50: 0.7 µg/mL (≈ 3.11 µM)
Herpes simplex 2 (G); Table 4, HSV-2 G
  EC50: 0.07 µg/mL (≈ 0.311 µM)
[4]
  EC50: 20 µg/mL (≈ 88.8 µM)
HSV-2 (strain) Lyons
  EC50: 0.07 µg/mL (≈ 0.311 µM)
